Source: ChEMBL document CHEMBL3046357, “Inhibitors of biotin biosynthesis as potential herbicides” (2004)

system: Arabidopsis thaliana; assay: Herbicidal activity against Arabidopsis thaliana after 3 weeks; format: functional

| SMILES | GR50 |
| --- | --- |
| COC(=O)CCCCCC(=O)C(N)CS.Cl (stereo not given) | 120 ppm |
| Cl.NC(CO)C(=O)CCCCCC(=O)O (stereo not given) | 100 ppm |
| COC(=O)CCCCCC(=O)C(N)CO.Cl (stereo not given) | 53 ppm |
| CC(O)C(N)C(=O)CCCCCC(=O)O.Cl (stereo not given) | 250 ppm |
| COC(=O)CCCCCC(=O)C(N)C(C)O.Cl (stereo not given) | 100 ppm |
| COC(=O)CCCCC/C(CN)=N\O.Cl | 53 ppm |
| Cl.NC/C(CCCCCC(=O)O)=N/O | 40 ppm |
| CCC(N)/C(CCCCCC(=O)O)=N/O.Cl (stereo not given) | >780 ppm |
| CC(C)C(N)/C(CCCCCC(=O)O)=N/O.Cl (stereo not given) | >780 ppm |
| Cl.Cl.NCC(N)CCCCCC(=O)O (stereo not given) | 53 ppm |
| CCC(N)C(N)CCCCCC(=O)O.Cl.Cl (stereo not given) | 76 ppm |
| CSCCC(N)C(N)CCCCCC(=O)O.Cl.Cl (stereo not given) | 0.78 ppm |
| CCC1NC(=O)NC1CCCCCC(=O)O (stereo not given) | 35 ppm |
| CSCCC1NC(=O)NC1CCCCCC(=O)O (stereo not given) | >780 ppm |
| CSCC1NC(=O)NC1CCCCCC(=O)O (stereo not given) | 46 ppm |
| COC(=O)CCCCCC1NC(=S)NC1CCSC (stereo not given) | >780 ppm |
| COC(=O)CCCCCC1NC(=S)NC1CSC (stereo not given) | 44 ppm |
| Cl.NCC(=O)CCCCCC(=O)O | 8 ppm |
| CCC(N)C(=O)CCCCCC(=O)O.Cl (stereo not given) | 43 ppm |
| CC(C)C(N)C(=O)CCCCCC(=O)O.Cl (stereo not given) | 37 ppm |
| CSCCC(N)C(=O)CCCCCC(=O)O.Cl (stereo not given) | >780 ppm |
| CSCC(N)C(=O)CCCCCC(=O)O.Cl (stereo not given) | >780 ppm |
| COC(=O)CCCCCC(=O)C(N)CSC.Cl (stereo not given) | 250 ppm |
| Cl.NC(CS)C(=O)CCCCCC(=O)O (stereo not given) | >780 ppm |
| O=C(O)CCCCCC1CNC(=O)N1 (racemic) | 35 ppm |
